Data on seven compounds can be found in patent US11780834B2, “Solid forms of 3-((1R,3R)-1-(2,6-difluoro-4-((1-(3-fluoropropyl)azetidin-3-yl)amino)phenyl)-3-methyl-1,3,4,9-tetrahydro-2H-pyrido[3,4-b]indol-2-yl)-2,2-difluoropropan-1-ol and processes for preparing fused tricyclic compounds comprising a substituted phenyl or pyridinyl moiety, including methods …” (Hoffmann-La Roche Inc., priority 2018, dated 2023).

Data set [1] can be described thus: Solubility at 37° C. (summary of solid forms). In kind it is physicochemical. The settings on record: medium not stated.
Data set [2] is described as follows: Approximate solubility of freebase Compound A in 16 solvents at RT. In kind it is physicochemical. On the procedure: Polymorph Screening. The solubility of freebase Compound A was estimated in 16 solvents at RT. (Table 8). Polymorph screening experiments were performed using different solution crystallization or solid phase transition methods.
Data set [3] in a line: Water sorption analysis / DVS (hygroscopicity). The format is physicochemical. The note with it: for Hygroscopicity (in words): water sorption / DVS at 25° C. On the procedure: Water sorption analysis. About 5-6 mg of powder sample was placed in the sample pan of an automated water sorption analyzer (Q5000SA, TA instruments, New Castle, DE) at 25° C. and a nitrogen flow rate of 200 mL/min. […] This was followed by a progressive decrease in RH in decrements of 10% back to 0% RH, using the same protocol.

Data set [4] can be described thus: Equilibrium solubility (17 hrs) of Form B and Form F in EtOH. In kind it is physicochemical. The note with it: concentration of freebase in filtrate. The source says: Phase transformation. Crystallization of Compound B from solvents such as ethyl acetate, ethanol, acetone or and aqueous mixture of these may result in the formation of one more of the following forms: anhydrous Form B, anhydrous Form F, monohydrate Form D, and acetone solvate Form A. The XRPD patterns of these four solid forms are shown in FIG. 21. It was therefore important to know the physical stability of these forms to determine the complete phase transformation landscape and control crystallization to obtain the desired Form B. Owing to the close proximity of melting points of Forms F and B (160-164° C. onset for Form F vs 166-175° C. for Form B), form conversion was slow in competitive slurry bridging experiments at RT and a mixture of both forms was obtained.
Equilibrium Solubility Measurement of Anhydrous Form B and F. To further determine the thermodynamic stability between Form B and F, equilibrium solubility measurement experiments were conducted in EtOH at 25° C., 35° C. and 50° C., respectively. Detailed procedures are summarized as follows: solids of Form B and F were suspended in 0.4 mL of EtOH at targeted temperatures and magnetically stirred for 17 hrs (750 rpm). After centrifugation, the concentration and HPLC purity of freebase in the filtrate was tested. The crystal form of remaining solids was checked by XRPD.

Data set [5] is described as follows: Hydrate-anhydrate stability, slurry competition under various water activity at RT. The format is physicochemical. The procedure: Critical Water Activity Determination between Form B and D. To determine critical water activity between anhydrous Form B and hydrous Form D, slurry competition was performed in various water activity conditions at RT as listed in Table 34. A mixture of Form B and D with equal mass ratio was suspended in saturated EtOH-water (with various aw) solutions of Form B and then magnetically stirred at RT. After slurry for about 7˜36 days, remaining solids were isolated for XRPD characterization.

Data set [6] can be described thus: Equilibrium solubility (24 hrs) of Form B and Form D in aw 0.2/0.4 EtOH:H2O systems. The format is physicochemical. The note with it: RT, concentration of freebase in filtrate; for solubility at 24 hrs: organic solvent or mixture, thermodynamic from solid. On the procedure: Solubility Measurement of Form B and D. To further confirm the thermodynamic stability relationship between Form B and Form D under aw of 0.2 and 0.4 conditions at RT, equilibrium solubility under the conditions set forth in Table 35 was collected.
Solids of anhydrous Form B and hydrous Form D were suspended in 0.5 mL of target solvent system (aw=0.2/0.4), respectively, and magnetically stirred for 24 hrs (750 rpm). The suspension was filtered and the concentration of freebase in the filtrate was tested.

Data set [7] in a line: Stress stability of solid forms at elevated temperature and humidity (XRPD, impurities). The format is physicochemical. On the procedure: Preliminary stress stability analysis of Compound B Form B. The XRPD patterns of Compound A salts (fumarate and tartrate) exposed to 40° C./75% RH for one month under open conditions.
XRPD of one-month stability sample.

A short description of data set [8]: Compression analysis of Compound B Form B compacts. In kind it is physicochemical. The settings on record: 250 mg compacts of neat compound.
The subject of data set [9] is xenograft models of ER-positive breast cancer. The settings on record: dosed according to a clinically relevant dosing scheme.

Converted amounts (≈) assume the structure as drawn.

The solubility is the dissolved amount per volume that the medium holds. Consider `C[C@@H]1Cc2c([nH]c3ccccc23)[C@@H](c2c(F)cc(NC3CN(CCCF)C3)cc2F)N1CC(F)(F)CO` [Compound A, 3-((1R,3R)-1-(2,6-difluoro-4-((1-(3-fluoropropyl)azetidin-3-yl)amino)phenyl)-3-methyl-1,3,4,9-tetrahydro-2H-pyrido[3,4-b]indol-2-yl)-2,2-difluoropropan-1-ol], for which the solubility was ~6600 µg/mL (≈ 12.6 mM) in data set [1]; > 60 mg/mL in data set [2] (ethanol, organic solvent or mixture, EtOH); > 60 mg/mL in [2] (organic solvent or mixture, 1,4-Dioxane); > 60 mg/mL in data set [2] (organic solvent or mixture, 2-propanol); > 60 mg/mL in data set [2] (organic solvent or mixture, ACN); > 60 mg/mL in data set [2] (organic solvent or mixture, Acetone). For the same compound, the solubility in data set [2] (organic solvent or mixture, CPME) was > 44 mg/mL; in data set [2] (organic solvent or mixture, Cyclohexanes), < 1.9 mg/mL; in [2] (organic solvent or mixture, EtOAc), > 60 mg/mL; in [2] (organic solvent or mixture, IPAc), > 60 mg/mL; in data set [2] (organic solvent or mixture, Iso-butanol) it was > 40 mg/mL; in data set [2] (organic solvent or mixture, MIBK) it was > 60 mg/mL. The solubility in [2] (organic solvent or mixture, MTBE) was > 60 mg/mL; in data set [2] (organic solvent or mixture, MeTHF), > 60 mg/mL; in data set [2] (organic solvent or mixture, Toluene), > 60 mg/mL; in data set [2] (organic solvent or mixture, n-Heptane), < 2.1 mg/mL; in data set [2] (water, H2O), < 1.9 mg/mL.

With `C[C@@H]1Cc2c([nH]c3ccccc23)[C@@H](c2c(F)cc(NC3CN(CCCF)C3)cc2F)N1CC(F)(F)CO` [Compound B Form B], the “Hygroscopicity (in words)” value in data set [3] is on record as “slightly hygroscopic”. The solubility at 17 hrs in data set [4] (35 °C, organic solvent or mixture, thermodynamic from solid) came to 300 µg/mL (≈ 0.574 mM); in data set [4] (50 °C, organic solvent or mixture, thermodynamic from solid) it was 490 µg/mL (≈ 0.938 mM). In addition, the solubility at 17 h in data set [4] (ethanol, 25 °C, organic solvent or mixture, thermodynamic from solid) amounted to 230 µg/mL (≈ 0.44 mM). Further, in data set [5], the “Water activity (aw) at which the form remained stable against hydrate Form D” value was < 0.2. In data set [5] (slurry bridging experiments up to 36 days), the “Water activity (aw) up to which the form was kinetically stable” value is ≤ 0.4. Further, the solubility at 24 hrs was found to be 27.5 mg/mL (≈ 52.6 mM) in data set [6] (EtOH:H2O (92.7:7.3, v/v), aw 0.4, 25 °C, aw 0.4, EtOH:H2O (92.7:7.3, v/v)) and 24.4 mg/mL (≈ 46.7 mM) in data set [6] (EtOH:H2O (97:3, v/v), aw 0.2, 25 °C, aw 0.2, EtOH:H2O (97:3, v/v)). For the same compound, the “Solubility at 37° C.” value in data set [1] is “about 5.9 mg/mL”. Further, the “Solid form (XRPD) after accelerated stability” value in data set [7] (30° C./65% RH and 40° C./75% RH, up to 6 months, open) is “remains unchanged”. Besides, the “Solid form (XRPD) after stress stability” value in data set [7] (40° C./75% RH, one month, open) is given as “remains unchanged”. The “Solid form upon compression (SSNMR, XRPD)” value in data set [8] was “remains unchanged”.

In the case of `C[C@@H]1Cc2c([nH]c3ccccc23)[C@@H](c2c(F)cc(NC3CN(CCCF)C3)cc2F)N1CC(F)(F)CO` [Compound B Form D], the “Water uptake (DVS, desorption)” value in data set [3] (20% RH, 25° C.) worked out at 2.25%; in data set [3] (80% RH, 25° C.), 2.72%. In addition, the “Solubility (equilibrium)” value in data set [6] (aw 0.2, EtOH:H2O (97:3, v/v)) came out at 21.7 mg/mL (≈ 41.5 mM); in [6] (aw 0.4, EtOH:H2O (92.7:7.3, v/v)), 18.6 mg/mL (≈ 35.6 mM).

On to `C[C@@H]1Cc2c([nH]c3ccccc23)[C@@H](c2c(F)cc(NC3CN(CCCF)C3)cc2F)N1CC(F)(F)CO` [Compound B Form F], for which, in [3] (up to 80% RH, 25° C.), the “Water uptake (DVS)” value is ~1.9%. The “Hygroscopicity (in words)” value in data set [3] was “slightly hygroscopic”. In addition, the “Solubility (equilibrium)” value in data set [4] (25° C.) is listed as 0.26 mg/mL (≈ 0.498 mM); in data set [4] (35° C.), 0.36 mg/mL (≈ 0.689 mM); in data set [4] (50° C.) it was 0.82 mg/mL (≈ 1.57 mM).

On to `C[C@@H]1Cc2c([nH]c3ccccc23)[C@@H](c2c(F)cc(NC3CN(CCCF)C3)cc2F)N1CC(F)(F)CO` [Compound C Form 1], for which the “Hygroscopicity at 95% RH” value in [3] (95% RH) is reported as < 1.5%.

With `C[C@@H]1Cc2c([nH]c3ccccc23)[C@@H](c2c(F)cc(NC3CN(CCCF)C3)cc2F)N1CC(F)(F)CO` [Compound C], the “Impurities after stress stability” value in [7] (40° C./75% RH, one month) is reported as 0.18%. Moreover, the “Solid form (XRPD) after stress stability” value in [7] (40° C./75% RH, one month, open) is recorded as “did not change”.

Turning to `C[C@]12CC[C@@H]3c4ccc(O)cc4C[C@@H](CCCCCCCCC[S+]([O-])CCCC(F)(F)C(F)(F)F)[C@H]3[C@@H]1CC[C@@H]2O` (stereo partly drawn) [Fulvestrant, reference compound], the “Efficacy relative to Compound B” value in data set [9] is “less efficacious than Compound B”.
